The target in this experiment is Neurotensin (Cavia porcellus, UniProt P32560).

The text below walks through data of BindingDB's records for PubMed 7791120 (Hospital Saint-Antoine, 1995).

“And” between values parts separate entries of the source, which are not always exact repeats. Identical values can stand only once.

Take `COc1cccc(OC)c1-c1cc(C(=O)N[C@@H](C(=O)O)C2CCCCC2)nn1-c1ccnc2cc(Cl)ccc12` [SR 49711]: the Ki (in general, the equilibrium dissociation constant of an inhibitor or competing ligand from its target) is 2000 nM and 2100 nM.

The compound `CCC(C)C(N)C(=O)C(C)(CC(=O)C(N)CCCCN)C(C(=O)C(N)Cc1ccc(O)cc1)(C(=O)C1CCCN1)C(N)(C(=O)O)C(=O)C(N)C(C)CC` (centres undefined) [NSC_3025353] showed a Ki of 1600 nM.

Take `COc1cccc(OC)c1-c1cc(C(=O)NC2(C(=O)O)C3CC4CC(C3)CC2C4)nn1-c1ccnc2cc(Cl)ccc12` (centres undefined): the Ki was 0.99 nM and 2.5 nM.

For the compound `COc1cccc(OC)c1-c1cc(C(=O)N[C@H](C(=O)O)C2CCCCC2)nn1-c1ccnc2cc(Cl)ccc12`, the Ki is 1.7 nM and 4.5 nM.
